Experimental data as given in PMC6272905, “In Vitro and In Vivo Characterization of Selected Fluorine-18 Labeled Radioligands for PET Imaging of the Dopamine D3 Receptor” (Molecules, 2016).
Values joined by “and” are separate entries in the source; they are usually repeats but may differ in a detail not shown here. Equal values may be shown once.

Legend:
[1] = In vivo stability in blood of living rats (radiometabolites); parameters: species or system rat
Method: For the determination of radioligand stability in vivo and detection of radiometabolites the respective radiotracer (15 MBq) was administered intravenous to male Sprague Dawley rats (200–250 g) under isoflurane anesthesia. Blood samples were drawn intravenous after 5, 15 and 30 min and centrifuged for 5 min at 2000 rpm in heparin-coated vials. An aliquot of 50 µL was taken from the supernatant and added to an equal volume of water (10% TFA). The protein precipitate was centrifuged off for 5 min at 25,000 rpm and an aliquot of the supernatant was fractioned with HPLC (Chromolith RP-18e, 100 mm × 4.6 mm, 4 mL/min, solvent A: water (0.1% TFA), solvent B: acetonitrile (0.1% TFA), gradient A/B: 90:10 to 0:100 in 15 min, λ = 214 nm). The fractions were then analyzed in the gamma-counter. To identify the fractions containing the intact radioligand, the retention time and fractioning of the respective tracer was previously assessed. Two independent experiments were performed.

D3 receptor in rat brain = biological target: T1, D3 receptor in rat brain (Rattus norvegicus, UniProt P19020); assay: Saturation binding assay on rat brain sections; details: for Bmax: rat brain sections, n = 4
T1 construct: from tissue; host or cells: brain cryosections (12 µm) of male Wistar rats
T1 sequence (P19020 whole entry): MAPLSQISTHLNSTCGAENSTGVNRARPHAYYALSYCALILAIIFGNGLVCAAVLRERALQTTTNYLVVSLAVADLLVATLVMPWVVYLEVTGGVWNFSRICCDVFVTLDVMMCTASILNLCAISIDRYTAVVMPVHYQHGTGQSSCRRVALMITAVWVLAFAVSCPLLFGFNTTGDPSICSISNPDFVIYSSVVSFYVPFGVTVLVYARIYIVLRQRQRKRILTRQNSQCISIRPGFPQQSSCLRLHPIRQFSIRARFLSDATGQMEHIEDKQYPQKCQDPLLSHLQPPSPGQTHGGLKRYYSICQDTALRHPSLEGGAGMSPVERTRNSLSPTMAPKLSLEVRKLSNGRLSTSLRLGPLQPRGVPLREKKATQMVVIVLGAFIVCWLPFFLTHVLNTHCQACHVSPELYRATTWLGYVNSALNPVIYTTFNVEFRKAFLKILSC

dopamine D3 receptor = assay: Ex vivo autoradiography of rat brain sections; format: in vivo
Method: Male Sprague Dawley rats (250–300 g) were injected with 20 MBq of [^18F]2b intra-venous under isoflurane (4%) anesthesia. For blocking studies BP897 (1 mg/kg) was administerd 30 min prior to radioligand injection. Rats were sacrificed by decapitation 30 min post radioligand injection and brains were removed and frozen in cooled hexane at −70 °C. Coronal and horizontal brain sections (12 µm) were cut on a cryostat microtome (HM550, Microm) and thaw-mounted on covered glass slides (Histobond®). The glass slides were placed on a phosphor screen (Fujitsu) over night. The screens were analyzed with a DUERR Medical HD-CR 35 Bio (Raytest) and evaluated using the software AIDA image analyzer (Raytest). Afterwards the sections were HE stained and ascribed to figures in the rat brain atlas. Binding in the regions of interest were evaluated as ratio of the activity in the region of interest through background activity. Binding in the cerebral matter of the respective sections was defined as background activity.

P-gp [2] = biological target: T2, P-gp (Homo sapiens, UniProt P08183); assay: P-gp inhibition assay (cellular uptake) in EA.hy926 cells; format: cell-based
T2 construct: endogenous in cells; host or cells: Caco-2
T2 sequence (P08183 whole entry): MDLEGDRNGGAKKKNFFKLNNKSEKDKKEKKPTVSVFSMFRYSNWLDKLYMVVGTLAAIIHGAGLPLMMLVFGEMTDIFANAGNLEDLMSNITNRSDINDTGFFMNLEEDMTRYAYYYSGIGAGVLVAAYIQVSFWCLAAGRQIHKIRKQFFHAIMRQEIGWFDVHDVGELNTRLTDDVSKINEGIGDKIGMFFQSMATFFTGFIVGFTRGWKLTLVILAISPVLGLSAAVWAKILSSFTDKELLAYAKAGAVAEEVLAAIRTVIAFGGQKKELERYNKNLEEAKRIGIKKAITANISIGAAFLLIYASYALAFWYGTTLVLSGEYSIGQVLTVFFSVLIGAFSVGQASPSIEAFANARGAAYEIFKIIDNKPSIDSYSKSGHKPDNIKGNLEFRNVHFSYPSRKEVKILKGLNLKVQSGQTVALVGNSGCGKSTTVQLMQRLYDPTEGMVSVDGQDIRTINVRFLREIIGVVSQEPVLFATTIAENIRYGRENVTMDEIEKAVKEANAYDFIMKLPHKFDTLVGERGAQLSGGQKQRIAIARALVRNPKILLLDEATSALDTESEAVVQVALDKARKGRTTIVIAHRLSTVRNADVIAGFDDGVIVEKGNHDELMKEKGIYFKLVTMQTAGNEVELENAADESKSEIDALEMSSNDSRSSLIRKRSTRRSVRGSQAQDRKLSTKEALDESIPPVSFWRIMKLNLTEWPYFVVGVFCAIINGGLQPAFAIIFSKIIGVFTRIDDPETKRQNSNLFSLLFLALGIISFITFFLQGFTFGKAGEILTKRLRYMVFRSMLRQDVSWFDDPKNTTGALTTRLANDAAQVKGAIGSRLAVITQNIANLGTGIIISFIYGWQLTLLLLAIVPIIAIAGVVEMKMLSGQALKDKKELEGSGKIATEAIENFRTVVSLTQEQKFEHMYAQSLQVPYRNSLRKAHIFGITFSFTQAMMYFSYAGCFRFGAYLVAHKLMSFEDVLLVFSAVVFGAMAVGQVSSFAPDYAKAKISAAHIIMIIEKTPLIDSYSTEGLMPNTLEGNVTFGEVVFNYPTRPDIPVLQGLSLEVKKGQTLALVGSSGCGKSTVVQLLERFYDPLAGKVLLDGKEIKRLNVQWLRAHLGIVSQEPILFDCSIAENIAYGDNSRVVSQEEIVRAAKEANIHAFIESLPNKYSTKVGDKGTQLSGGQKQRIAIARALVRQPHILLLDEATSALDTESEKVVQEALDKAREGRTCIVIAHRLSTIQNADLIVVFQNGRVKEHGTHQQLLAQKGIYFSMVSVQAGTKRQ
Method: (§1) EA.hy926 cells were seeded in culture medium at confluency the day prior to experiment or in case of the Caco-2 cells two days prior to experiment in 24-multiwell plates (Greiner Bio-One International GmbH, Kremsmünster, Austria). On the day of the experiment the culture medium was removed and the cells were washed once with PBS (500 µL). Culture medium supplemented with cyclosporine-A (5 µM for EA.hy926 and 10 µM for Caco-2) was added and the cells were incubated at 37 °C for 30 min. Afterwards 1 MBq of [^18F]2b was added to each well and incubated for further 30, 60 and 90 min. After incubation cells were washed with ice cold PBS (500 µL) and lysated with 0.1 M NaOH. The medium and lysates were analysed in the gamma-counter. To identify cyclosporine-A induced accumulation the experiment was also performed using culture medium lacking cyclosporine-A. As positive control the experiment was performed with ^99mTc-MIBI (100 kBq/well), a known P-gp substrate. To determine the lowermost concentration with which a maximum effect was obtained, cyclosporine-A was applied in a range of 0–50 µM and observed in a time frame of 30–120 min for both cell lines.

P-gp [3] = biological target: T2, P-gp; assay: P-gp inhibition assay (cellular uptake) in Caco-2 cells; format: cell-based
Method: as §1

[4] = lateral ventricle, coronal section (Interaural 4.70, Bregma −4.30)
[5] = third ventricle, horizontal section (Interaural 5.90, Bregma −4.10)

intact tracer in rat plasma ([1]; 5 min after i.v. injection): 49%
intact tracer in rat plasma ([1]; 30 min after i.v. injection): 37%
Kd (D3 receptor in rat brain; all three regions): ~0.1 nM
Kd (D3 receptor in rat brain; caudate putamen): 0.08 ± 0.06 nM
Bmax (D3 receptor in rat brain; caudate putamen (striatum)): 16.58 pmol/g and 16.58 ± 1.63 pmol/g
Kd (D3 receptor in rat brain; islands of calleja): 0.1 ± 0.01 nM
Bmax (D3 receptor in rat brain; islands of calleja): 20.38 pmol/g and 20.38 ± 2.67 pmol/g
Kd (D3 receptor in rat brain; nucleus accumbens): 0.11 ± 0.07 nM
Bmax (D3 receptor in rat brain; nucleus accumbens): 19.54 pmol/g and 19.54 ± 1.85 pmol/g
ratio ROI/background (dopamine D3 receptor; lateral and third ventricle, section (Interaural 5.70, Bregma −3.30)): 22
ratio ROI/background (dopamine D3 receptor; lateral and third ventricle, sections (Interaural 10.60, Bregma 1.60) and (Interaural 7.70, Bregma −1.30), 30 min p.i.): ~15
ratio ROI/background (dopamine D3 receptor; [4]): ~30
ratio ROI/background (dopamine D3 receptor; [5]): 32
percentage inside the cells (P-gp [2]): 5%
influence of cyclosporin-A on cellular uptake (P-gp [2]; with vs without cyclosporin-A): did not increase the uptake
percentage inside the cells (P-gp [3]): 10%
influence of cyclosporin-A on cellular uptake (P-gp [3]; with vs without cyclosporin-A): did not increase the uptake
Structure (SMILES): COc1ccccc1N1CCN(CCCCNC(=O)/N=N/c2ccc([18F])cc2)CC1 [[^18F]2b]
displacement by BP897 (dopamine D3 receptor; lateral and third ventricle, sections (Interaural 10.60, Bregma 1.60) and (Interaural 7.70, Bregma −1.30)): no displacement
displacement with BP897 (dopamine D3 receptor; [4]): 60%
displacement by BP897 (dopamine D3 receptor; section (Interaural 5.70, Bregma −3.30)): 40%–50%
displacement through BP897 (dopamine D3 receptor; [5]): 50%
